Measurements taken from patent publication US8921382B2, “Thiazolo[5,4-d] pyrimidines and their use as agrochemicals” (Dow AgroSciences, LLC., priority 2010, dated 2014).

Columns and labels:
[1] = system: Pyricularia oryzae; assay: whole plant or invertebrate; type: in vivo; settings: foliar, read-out: Activity against Fungal Diseases PYRIOR (percent disease control)
[2] = system: Puccinia recondita tritici; assay: Leaf Rust of Wheat foliar spray test, inoculated one day after treatment; type: in vivo; settings: applied to foliage at 200 ppm, wheat plants, read-out: Activity against Fungal Diseases PUCCRT (percent disease control)
Description: (§1) Fungicide activity data are the level (in percent) at which the given disease was controlled when the given compound was applied to the foliage of the plants at 200 ppm. In a few cases (noted in the table) the compound was applied to the plants at 25 ppm or 3 ppm. The plants were inoculated with the fungus one day after treatment. ***=80-100% control; **=50-79% control; *=0-49% control. […] The activity of the compounds as effective fungicides was determined by applying the compounds to plants and observing control of fungal disease. […] All plants were inoculated with spores of the fungus the day after treatment, then incubated in an environment conducive to disease development. Disease severity was evaluated 4 to 25 days (d) later, depending on the speed of disease development. The following experiments were performed in the laboratory to determine the fungicidal efficacy of the compounds of the invention. […] Each pot contained 3-8 seedlings. These plants were sprayed until wet with the formulated test compounds. On the following day, the leaves were inoculated with an aqueous spore suspension of Puccinia recondita tritici and the plants were kept in high humidity overnight to permit spores to germinate and infect the leaf. The plants were then transferred to a greenhouse until disease developed on untreated control plants. […] The effectiveness of the test compounds at controlling disease when sprayed on leaves was determined by assessing the severity of disease on treated plants, then converting the severity to percent control based on the level of disease on untreated, inoculated plants.

[3] = system: Pseudoperonospora cubensis; assay: Cucumber Downy Mildew foliar spray test, inoculated one day after treatment; type: in vivo; settings: applied to foliage at 200 ppm, cucumber plants, read-out: Activity against Fungal Diseases PSPECU (percent disease control)
Description: Fungicide activity data are the level (in percent) at which the given disease was controlled when the given compound was applied to the foliage of the plants at 200 ppm. In a few cases (noted in the table) the compound was applied to the plants at 25 ppm or 3 ppm. The plants were inoculated with the fungus one day after treatment. ***=80-100% control; **=50-79% control; *=0-49% control. […] The activity of the compounds as effective fungicides was determined by applying the compounds to plants and observing control of fungal disease. […] All plants were inoculated with spores of the fungus the day after treatment, then incubated in an environment conducive to disease development. Disease severity was evaluated 4 to 25 days (d) later, depending on the speed of disease development. The following experiments were performed in the laboratory to determine the fungicidal efficacy of the compounds of the invention. Cucumber Downy Mildew (causal agent Pseudoperonospora cubensis; Bayer code […]): Cucumber plants (variety 'Bush Champion' or 'Bush Pickle Hybrid') were grown from seed in a soil-less peat-based potting mixture (Metromix) until the first true leaf was 20-80% expanded. Each pot contained 1 seedling. These plants were sprayed until wet with the formulated test compound. On the following day, the leaves were inoculated with an aqueous suspension of downy mildew sporangia and the plants were kept in high humidity for one day to permit sporangia to germinate and infect the leaf. The plants were then incubated in a growth chamber until disease developed on untreated control plants. […] The effectiveness of the test compounds at controlling disease when sprayed on leaves was determined by assessing the severity of disease on treated plants, then converting the severity to percent control based on the level of disease on untreated, inoculated plants.

[4] = system: Septoria tritici; assay: Septoria Blotch of Wheat foliar spray test, inoculated one day after treatment; type: in vivo; settings: Zymoseptoria tritici, wheat plants, read-out: Activity against Fungal Diseases SEPTTR (percent disease control); for pest or weed control at 200 ppm: applied to foliage at 200 ppm; for pest or weed control at 25 ppm: Tested at 25 ppm
Description: as §1, with “3-10” for “3-8”, “compound.” for “compounds.”, “Septoria” for “Puccinia recondita”, “(one day in a dark dew chamber followed by two days in a lighted dew chamber)” for “overnight”

[5] = system: Caenorhabditis elegans; settings: Application rate 10 micrograms per milliliter agar; evaluated after 24 h at 20° C.
Description: The activity of the compounds against Caenorhabditis elegans was determined by dissolving compounds in DMSO, then applying them to petri dishes containing Nematode Growth Medium agar to a final concentration of 10 micrograms (μg) compound per milliliter agar. Escherichia coli bacteria were grown on the plates to provide a food source for the larvae of Caenorhabditis elegans. The bacteria were heat-killed at 65° C. before compounds were added to the plates.
The plates with compound and heat-killed bacteria were infested with 10 microliter (μL) drops containing eggs from wild-type Caenorhabditis elegans worms. Adult worms were dissolved in potassium hydroxide (KOH) and bleach and washed in Ringers solution to generate the egg suspension. Each compound was screened with approximately 400 eggs, divided between two petri dishes. Egg hatching was evaluated after 24 h at 20° C. Mortality was averaged over the two plates.

Compound | melting point | pest or weed control at 200 ppm [1] | pest or weed control at 200 ppm [2] | pest or weed control at 200 ppm [3] | pest or weed control at 200 ppm [4] | pest or weed control at 25 ppm [4] | Percent mortality [5]
COc1cc(CCNc2ncnc3scnc23)ccc1O [Compound 12, 2-methoxy-4-[2-(thiazolo[5,4-d]pyrimidin-7-ylamino)-ethyl]-phenol] | 151 to 154 °C | – | – | – | – | – | –
COc1cc(CCNc2ncnc3scnc23)ccc1Oc1cc(C(F)(F)F)cc[n+]1[O-] [Compound 42, {2-[3-methoxy-4-(1-oxy-4-trifluoromethylpyridin-2-yloxy)-phenyl]-ethyl}-thiazolo[5,4-d]pyrimidin-7-ylamine] | – | 80 to 100% | 80 to 100% | 80 to 100% | 80 to 100% | – | –
FC(F)(F)c1ccncc1Oc1ccc(CCNc2ncnc3scnc23)cc1 [Compound 43, thiazolo[5,4-d]pyrimidin-7-yl-{2-[4-(4-trifluoromethylpyridin-3-yloxy)-phenyl]-ethyl}-amine] | – | 80 to 100% | 80 to 100% | 80 to 100% | 80 to 100% | – | –
c1ccc2c(c1)oc1ccc(CCNc3ncnc4scnc34)cc12 [Compound 44, (2-dibenzofuran-2-ylethyl)-thiazolo[5,4-d]pyrimidin-7-yl-amine] | – | 80 to 100% | 0 to 49% | 80 to 100% | 50 to 79% | – | –
Cc1cc(CCNc2ncnc3scnc23)ccc1Oc1nc(C(F)(F)F)c(Cl)s1 [Compound 46, {2-[4-(5-chloro-4-trifluoromethylthiazol-2-yloxy)-3-methylphenyl]-ethyl}-thiazolo[5,4-d]pyrimidin-7-ylamine] | – | 80 to 100% | 80 to 100% | 80 to 100% | 80 to 100% | – | –
Cc1cc(CCNc2ncnc3scnc23)ccc1Oc1c(Cl)cnc(C(F)(F)F)c1Cl [Compound 49, {2-[4-(3,5-dichloro-2-trifluoromethylpyridin-4-yloxy)-3-methylphenyl]-ethyl}-thiazolo[5,4-d]pyrimidin-7-ylamine] | – | 80 to 100% | 50 to 79% | 50 to 79% | – | 0 to 49% | –
FC(F)(F)c1cc(Oc2ccc(CCNc3ncnc4scnc34)cc2)ncn1 [Compound 52, thiazolo[5,4-d]pyrimidin-7-yl-{2-[4-(6-trifluoromethylpyrimidin-4-yloxy)-phenyl]-ethyl}-amine] | – | 80 to 100% | 80 to 100% | 80 to 100% | – | 80 to 100% | –
Cc1cc(CCNc2ncnc3scnc23)ccc1Oc1cc(C(F)(F)F)ncn1 [Compound 53, {2-[3-methyl-4-(6-trifluoromethylpyrimidin-4-yloxy)-phenyl]-ethyl}-thiazolo[5,4-d]pyrimidin-7-ylamine] | – | 80 to 100% | 80 to 100% | 80 to 100% | – | 80 to 100% | –
Cc1cc(Oc2cc(C(F)(F)F)ccn2)ccc1CCNc1ncnc2scnc12 [Compound 59, {2-[2-methyl-4-(4-trifluoromethylpyridin-2-yloxy)-phenyl]-ethyl}-thiazolo[5,4-d]pyrimidin-7-ylamine] | – | 80 to 100% | 80 to 100% | 80 to 100% | 80 to 100% | – | –
Fc1cc(C(F)(F)F)cnc1Oc1ccc(CCNc2ncnc3scnc23)cc1 [Compound 61, {2-[4-(3-fluoro-5-trifluoromethylpyridin-2-yloxy)-phenyl]-ethyl}-thiazolo[5,4-d]pyrimidin-7-ylamine] | – | 80 to 100% | 80 to 100% | 80 to 100% | – | 50 to 79% | –
Cc1cc(C(F)(F)F)cc(Oc2ccc(CCNc3ncnc4scnc34)cc2)n1 [Compound 62, {2-[4-(6-methyl-4-trifluoromethylpyridin-2-yloxy)-phenyl]-ethyl}-thiazolo[5,4-d]pyrimidin-7-ylamine] | – | 80 to 100% | 80 to 100% | 80 to 100% | 80 to 100% | – | –
ivermectin | – | – | – | – | – | – | 95%
